Results published in PMC10107140, “Preparative‐Scale Biocatalytic Oxygenation of N‐Heterocycles with a Lyophilized Peroxygenase Catalyst” (Angewandte Chemie (International Ed. in English), 2022).
pIC50: −log10 of the molar value.

Assays:
Format in all cases: biochemical
[1] = target: T1, rAaeUPO-PaDa-I-H (unspecific peroxygenase) (Cyclocybe aegerita, UniProt B9W4V6, F354L/I291V/L110F/V100A/V118I); experiment: competition-based 5-nitro-1,3-benzodioxole peroxygenase assay
T1 construct: gene APO1; recombinant, expressed in Pichia pastoris, C-terminal histidine tag
T1 sequence (B9W4V6 44-371 V100A/L110F/V118I/I291V/F354L): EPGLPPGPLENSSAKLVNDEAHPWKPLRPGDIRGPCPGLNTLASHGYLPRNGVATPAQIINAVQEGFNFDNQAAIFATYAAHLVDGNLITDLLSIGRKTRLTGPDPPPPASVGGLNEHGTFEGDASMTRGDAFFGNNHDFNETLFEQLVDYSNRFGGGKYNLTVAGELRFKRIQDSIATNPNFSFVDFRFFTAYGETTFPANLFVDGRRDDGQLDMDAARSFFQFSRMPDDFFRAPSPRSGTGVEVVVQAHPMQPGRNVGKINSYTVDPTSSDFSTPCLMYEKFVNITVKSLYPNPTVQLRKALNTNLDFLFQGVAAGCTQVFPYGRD

[2] = target: T1, rAaeUPO-PaDa-I-H (unspecific peroxygenase); experiment: competition-based 5-nitro-1,3-benzodioxole peroxygenase assay; also converted to (R)-alcohol […]
[3] = target: T1, rAaeUPO-PaDa-I-H (unspecific peroxygenase); experiment: as above; remark: listed apart in the source

Question: With `CCc1ccncc1` [compound 6, 4-ethylpyridine] as the compound, how does the pIC50 [1] read?
Answer: Its pIC50 is 4.80.

Question: How did the pIC50 [2] turn out when `CCc1cccnc1` [compound 10, 3-ethylpyridine] was run?
Answer: The pIC50 was 3.15.

Question: With `CCc1ccccn1` [compound 14, 2-ethylpyridine] as the compound, how does the pIC50 [3] read?
Answer: The pIC50 was 1.53.
